Source: patent publication US20230340498A1, “COMPOSITIONS AND METHODS FOR INDUCIBLE ALTERNATIVE SPLICING REGULATION OF GENE EXPRESSION” (The Children's Hospital of Philadelphia, priority 2020, published 2023)

How the values were obtained:
HEK293 cells = assay: PCR validation of LMI070-induced novel exons with primers binding the flanking exons; assay type: cell-based, Human; conditions: top 5 candidate genes; cDNA from HEK293 cells treated with LMI070 vs DMSO
Experimental: RNA extraction, RT-PCR, and Splicing assays. Total RNA was extracted using Trizol (Life Technologies) according to the manufacturer’s protocol, with the exception of 1 µL Glycoblue (Life Technologies) in addition to the aqueous phase on the isopropanol precipitation step and a single wash with cold 70% ethanol. To determine HTT expression levels after transfection, RNA samples were quantified by spectrophotometry and subsequently cDNAs generated from […] of total RNA with random hexamers (TaqMan RT reagents, Applied Biosystems). […] Relative HTT gene expression was determined using the ddCt method. […] Splicing was determined by PCR using the Phusion High-Fidelity polymerase (Thermofisher) and PCR products separated on a 2.5% agarose gel pre-stained with EtBr and spliced-in and spliced-out band densitometry performed using with the ChemiDoc Imaging System (BioRad) and Image Lab analysis software. Splicing induction from mouse tissues was determined using two custom TaqMan assays designed to determine total or LMI070-spliced in mRNA transcripts. The percentage of induction was determined by dividing the average Ct novel exon and average Ct Total, relative to control animals injected with AAV virus plus vehicle. […]

[1] = tested on: Ai14 reporter genomic locus; assay: In vivo AAV8.Xon.SaCas9 editing of Ai14 reporter locus in liver; conditions: Ai14 mice, PCR and tdTomato expression
From the text: To assess the applicability of Xon for liver targeted therapies, AAV8.Xon.Epo and AAV8.Xon.SaCas9 vectors were generated and delivered to C57Bl6 and Ai14 reporter mice, respectively (FIGS. 7A, 7C, 7F).

SMN2-on minigene = assay: SMN2-on cassette Firefly luciferase reporter assay in transfected HEK293 cells; assay type: cell-based, Human
Experimental: (§1) Cell culture, transfection, and LMI070/RG7800 treatment. Human embryonic kidney (HEK293) cells (obtained from CHOP Research Vector Core stock) were maintained in DMEM media containing 10% Fetal Bovine Serum (FBS), 1% L-Glutamine and 1% penicillin/streptomycin at 37° C. with 5% CO2. Cells were cultured in 24 well plates and transfected at 80-90% confluence using Lipofectamine 2000 transfection reagent, according to the manufacturer’s protocol. For all experiments, 4 hours after plasmid transfection, cells were treated with LMI070 (MedChemExpress, HY-19620, suspended in DMSO) or RG7800 (MedChemExpress, HY-101792A, suspended in H2O) at the indicated concentrations. Cells were tested for mycoplasma by Research Vector Core. None of the cells used in the study were listed in ICLAC database of commonly misidentified cell lines.
In vitro luciferase assays. HEK293 cells were cultured in DMEM (10% FBS (v/v), 1% Pen/ Strep (v/v), and 1% L-glutamine (v/v) in a 24-well plate. At 70%-80% confluence, cells were co-transfected with the Xon.Firefly luciferase cassettes (0.3 µg/well) and a SV40p-Renilla luciferase cassette as transfection control (0.02 µg/well). Four hours after transfections cells were treated either with LMI070 or RG7800 at indicated concentrations. At 24 h after transfection, cells were rinsed with ice-cold PBS and Renilla and Firefly luciferase activities were assessed using the Dual-Luciferase Reporter Assay System (Promega) according to the manufacturer’s instructions. Luminescent readouts were obtained with a Monolight 3010 luminometer (Pharmigen). Relative light units (RLUs) were calculated as the quotient of […] RLUs and results expressed relative to mock treated control cells.
For this, SMN2-on cassettes were generated to provide drug-induced reporter gene expression. HEK293 cells were transfected with the SMN2-on expression cassettes and luciferase activity evaluated in response to varying doses of LMI070 or RG7800. […]

SMN2 exon 7 = assay: SMN2-on cassette exon 7 splicing assay (RT-PCR) in transfected HEK293 cells; assay type: cell-based, Human; conditions: LMI070 compared with RG7800
Experimental: as §1, with “None of the cells used in the study were listed in ICLAC database of commonly misidentified cell lines.” left out
RNA extraction, RT-PCR, and Splicing assays. […] To determine HTT expression levels after transfection, RNA samples were quantified by spectrophotometry and subsequently cDNAs generated from […] of total RNA with random hexamers (TaqMan RT reagents, Applied Biosystems). […] Relative HTT gene expression was determined using the ddCt method. […] Splicing was determined by PCR using the Phusion High-Fidelity polymerase (Thermofisher) and PCR products separated on a 2.5% agarose gel pre-stained with EtBr and spliced-in and spliced-out band densitometry performed using with the ChemiDoc Imaging System (BioRad) and Image Lab analysis software. […]

## CC1(C)CC(Oc2ccc(-c3ccc(-c4cn[nH]c4)cc3O)nn2)CC(C)(C)N1 [LMI070, 5-(1H-Pyrazol-4-yl)-2-(6-((2,2,6,6-tetramethylpiperidin-4-yl)oxy)pyridazin-3-yl)phenol]
HEK293 cells
  amplification of the novel exons by PCR: Robust amplification
[1]
  editing of the Ai14 reporter genomic locus (liver): only observed on mice injected with AAV8.Xon.SaCas9 virus and treated with LMI070
SMN2-on minigene; HEK293 cells, varying doses
  luciferase activity from the SMN2-on minigene: induced luciferase activity
SMN2-on minigene; indSMN2 cassette, relative to DMSO treated cells (FIG. 1E: LMI070 100 nM)
  overall induction of luciferase, refined SMN2-on switch system: approximately 20 fold
SMN2 exon 7
  relative activity in the setting of the SMN2-on cassette: more active than RG7800
